Experimental data from patent US9376376B2, “Substitute diphenylamine compounds use thereof as antitumor agents” (SINOCHEM CORPORATION, priority 2012, dated 2016).

Columns and labels:
leukemia HL-60 cells = assay: In vitro cell inhibition assay (MTT method), HL-60; type: cell-based, human; settings: 48 h
Method: (§1) The human cancer cell lines used for this assay were lung cancer A549 and leukemia HL-60.
(§2) The A549 or HL-60 cells were picked up from cell incubator, after washed for twice using PBS, cells were digested by 0.25% trypsin, and then add medium to terminate the digestion. After cells were collected using centrifuge and re-suspended, count cells under inverted microscope and add medium to make a density was 5×10^4 cells/mL. After 100 μL aliquots were added to each well of 96-well microtiter plates, cells were cultured in 5% incubator for overnight at 37° C., then the different concentration compounds were added to each well. After incubation for 48 h, MTT solution was added to each well and plates were then incubated for 4 h. The MTT tetrazolium was reduced to formazan by living cells. Then the formazan crystals were dissolved though adding DMSO to each well. The absorbance was read at 570 nm with a microplate reader.

lung cancer A549 cell = assay: In vitro cell inhibition assay (MTT method), A549; type: cell-based, human; settings: 48 h incubation
Method: as §1, §2

| Compound | Proliferation inhibitory effect of the compounds on HL-60 cells (% of Control) (leukemia HL-60 cells; concentration 0.01 μM) | Proliferation inhibitory effect of the compounds on HL-60 cells (% of Control) (leukemia HL-60 cells; concentration 0.1 μM) | Proliferation inhibitory effect of the compounds on HL-60 cells (% of Control) (leukemia HL-60 cells; concentration 1 μM) | Proliferation inhibitory effect of the compounds on HL-60 cells (% of Control) (leukemia HL-60 cells; concentration 10 μM) | Proliferation inhibitory effect of the compounds on HL-60 cells (% of Control) (leukemia HL-60 cells; concentration 100 μM) | Proliferation inhibitory effect of the compounds on A549 cell (% of Control) (lung cancer A549 cell; 0.01 μM) | Proliferation inhibitory effect of the compounds on A549 cell (% of Control) (lung cancer A549 cell; 0.1 μM) | Proliferation inhibitory effect of the compounds on A549 cell (% of Control) (lung cancer A549 cell; 1 μM) | Proliferation inhibitory effect of the compounds on A549 cell (% of Control) (lung cancer A549 cell; 10 μM) | Proliferation inhibitory effect of the compounds on A549 cell (% of Control) (lung cancer A549 cell; 100 μM) |
| --- | --- | --- | --- | --- | --- | --- | --- | --- | --- | --- |
| Cc1c(Cl)c([N+](=O)[O-])cc([N+](=O)[O-])c1Nc1ccc(C#N)cc1Cl [Compounds 22-61] | 5.2 % of Control | 7.8 % of Control | 11.0 % of Control | 85.7 % of Control | 89.8 % of Control | – | – | – | – | – |
| COC(=O)c1cc(Cl)c(Nc2c([N+](=O)[O-])cc([N+](=O)[O-])c(Cl)c2C)c(Cl)c1 [Compounds 22-107] | 2.8 % of Control | −9.3 % of Control | −7.0 % of Control | 65.4 % of Control | 94.4 % of Control | – | – | – | – | – |
| Cc1cc([N+](=O)[O-])cc([N+](=O)[O-])c1Nc1c(Cl)cc(C(F)(F)F)cc1Cl [Compounds 30-101] | −6.4 % of Control | −14.2 % of Control | −0.3 % of Control | 57.3 % of Control | 80.7 % of Control | – | – | – | – | – |
| Cc1c(Cl)c([N+](=O)[O-])cc([N+](=O)[O-])c1Nc1c(Cl)cc(C#N)cc1Cl [Compounds 22-104] | 4.1 % of Control | −7.3 % of Control | −2.1 % of Control | 60.5 % of Control | 94.0 % of Control | – | – | – | – | – |
| Cc1c(Cl)c([N+](=O)[O-])cc([N+](=O)[O-])c1Nc1c(Cl)cc(C(F)(F)F)cc1Cl [Compound 22-101] | 8.3 % of Control | 5.5 % of Control | 48.6 % of Control | 73.4 % of Control | 64.7 % of Control | 13.7 % of Control | 21.4 % of Control | 19.1 % of Control | 66.4 % of Control | 97.5 % of Control |
| Cc1c(Cl)c([N+](=O)[O-])cc([N+](=O)[O-])c1Nc1c(Cl)cc(Cl)cc1Cl [Compounds 22-98] | −7.3 % of Control | 1.3 % of Control | 9.5 % of Control | 77.7 % of Control | 91.0 % of Control | – | – | – | – | – |
| N#Cc1cc(Cl)cc(Cl)c1Nc1c(Cl)c(Cl)c(C#N)c(Cl)c1C#N [Compound 6-109] | 0.1 % of Control | 2.2 % of Control | 2.9 % of Control | 52.4 % of Control | 94.4 % of Control | – | – | – | – | – |
| N#Cc1ccc(Nc2c(Cl)c(Cl)c(C#N)c(Cl)c2C#N)cc1 [Compound 6-23] | 2.3 % of Control | 10.8 % of Control | 23.1 % of Control | 93.2 % of Control | 90.6 % of Control | −0.8 % of Control | −1.8 % of Control | 2.5 % of Control | 93.7 % of Control | 93.8 % of Control |
| N#Cc1c(Cl)c(Cl)c(Nc2cc(C(F)(F)F)ccc2F)c(C#N)c1Cl [Compound 6-35] | −8.3 % of Control | −5.0 % of Control | −1.8 % of Control | 72.3 % of Control | 89.9 % of Control | 0.5 % of Control | −0.8 % of Control | 1.0 % of Control | 58.6 % of Control | 92.7 % of Control |
| N#Cc1c(Cl)c(Cl)c(Nc2c(Cl)cc([N+](=O)[O-])cc2Br)c(C#N)c1Cl [Compound 6-113] | −3.8 % of Control | 8.8 % of Control | 9.3 % of Control | 85.4 % of Control | 93.1 % of Control | 9.2 % of Control | 2.9 % of Control | 2.6 % of Control | 75.6 % of Control | 93.7 % of Control |
| N#Cc1ccccc1Nc1c(Cl)c(Cl)c(C#N)c(Cl)c1C#N [Compound 6-10] | 21.8 % of Control | 16.1 % of Control | 9.8 % of Control | 78.5 % of Control | 77.1 % of Control | – | – | – | – | – |
| Cc1c(Cl)c([N+](=O)[O-])cc([N+](=O)[O-])c1Nc1ccc(C(F)(F)F)cc1 [Compounds 22-24] | −22.4 % of Control | −16.7 % of Control | −9.3 % of Control | 82.4 % of Control | 94.3 % of Control | – | – | – | – | – |
| N#Cc1c(Cl)c(Cl)c(Nc2ccccc2Cl)c(C#N)c1Cl [Compound 6-3] | −7.1 % of Control | −6.3 % of Control | −2.1 % of Control | 72.2 % of Control | 94.5 % of Control | – | – | – | – | – |
